From patent US10292992B2, “Selective high-affinity polydentate ligands and methods of making such” (LAWRENCE LIVERMORE NATIONAL SECURITY, LLC, priority 2008, dated 2019) come the findings set out here.

For orientation: Kd means the equilibrium constant for the complex coming apart.

In assay [1] the test system is Jurkat's cells (cells lacking HLA-DR10). Briefly: 3-D confocal microscopy, Jurkat's cells. The assay is classed as cell-based, human. The following applies: biotinylated reagent, 1 hr. The protocol:
SHAL binding and internalization by Raji and Jurkat's cells was assessed using the method described previously by O'Donnell et al. (O'Donnell et al. (1998) Prostate 37:91-97). Experiments were conducted comparing the binding of (DvLPBaPPP)2LLDo (the parent SHAL), its hexa-arginine analog (DvLPBaPPP)2LArg6AcLLDo, and chimeric Lym-1 (chLym-1) to Raji cells. All steps were performed at 20° C., unless indicated.
Four million Raji cells (>92% viability) in log phase growth were pelleted at 300×g, washed, and blocked for 30 min in 1 ml of 1% fraction V BSA in PBS, with constant rotation. Cells were then incubated 1 hr, at 1 million per 250 μl, with either 1% BSA in PBS or a biotinylated primary reagent: 10 nM chLym-1, 10 μM parent SHAL, or 10 μM hexa-arginine SHAL. After four washes (two in 1% BSA in PBS, two in PBS), 50 μl of the cell suspensions was applied to freshly poly-L-Lysine coated slides, and cells were allowed to adhere for 10 min in a humid chamber. Fixation and permeabilization were performed at −20° C. by using a 4 min exposure to methanol. Jurkat's cells were treated in the same manner as a control.
Slides were then washed twice in PBS and blocked in 10% fetaplex serum (Gemini Bioproducts, West Sacramento, Calif.) in PBS for 15 min and washed once in PBS. […]

In a further assay the test system is HLA-DR10 protein. Description: Surface plasmon resonance binding of SHALs to isolated HLA-DR10 protein. More on the design: species or system human. The text has this:
In certain embodiments, the binding affinities of the best SHALs can be estimated by mass spectrometry of the SHAL-target complexes, followed by a more accurate surface plasmon resonance (SPR) spectroscopy (Shuck (1997) Annu Rev Biophys Biomol Struct., 26: 541-566; Van Regenmortal (2001) Cell Mol Life Sci., 58: 794-800) measurement of the SHAL-target binding affinity using for example, the IASYS Plus or BiaCore instruments. In order to perform the SPR measurement, biotin can be added to the linker through a third functional group (as described above) and the SHAL can be bound to commercially available streptavidin coated chips. […] Experiments can be performed to test the selectivity of SHAL binding to targets in the presence of molecules related to the targets. Thus, for example, where the SHAL is directed to HLA-DR10, the SHAL can be evaluated for its ability to bind target molecules in the presence of Raji cell surface proteins extracted and separated by affinity chromatography. After treating the gel with the biotinylated SHAL and rinsing out excess unbound SHAL, the location of the bound SHAL can be detected by staining with Rhodamine tagged streptavidin.
Protein binding experiments were conducted using surface plasma resonance on a Biacore 3000 (Biacore, Piscataway, N.J.) at 25° C. A research grade streptavidin immobilized chip (SA chip, Biacore) was preconditioned and normalized according to the manufacturers instructions. Biotin labeled SHALs were dissolved in DMSO and diluted in 1.05×PBS (Biacore) to a final concentration of 1×PBS pH 7.4, 5% DMSO, to match the running buffer. These SHALs were injected over the flow cell to yield a surface density of 500-1000RU (response units). Biotin (50 μM E-Z Link Amine-PEO2-Biotin, Pierce) was injected over all cells for 1 minute at 20 μl/min as a block to reduce non-specific binding. One flow cell was used as a reference cell and a different SHAL was immobilized on each of the three other cells.
Experiments measuring the binding of HLA-DR10 to the SHALs were carried out at a flow rate of 30 μl/minute in PBS pH7.4 running buffer using all 4 flow cells. HLA-DR10 isolated from Raji cells (Rose et al. (1996) Cancer Immunol Immunother 43:26-30) was diluted in running buffer to a final concentration ranging from […] and a series of concentrations were run randomly in triplicate. Protein was injected for 3 minutes, allowed to dissociate for 5 minutes followed by regeneration of the surface using a 1 minute injection of 0.1% sodium dodecylsulfate (SDS) followed by a washing step with a 2 minute injection of running buffer. The data, which were double referenced by subtracting the blank reference surface and an average of 5 blank injections, were processed using the program SCRUBBER (University of Utah).
Using homology modeling, HLA-DR amino acid residues critical for Lym-1 binding were mapped on a 3-D model of the HLA-DR10ß subunit (Balhorn et al, (2007) Clin. Cancer Res., 13(Suppl. 18): S5621-S5628). Cavities within the Lym-1 epitopic surface of the protein were identified using SPHGEN (Kuntz et al. (1982) J. Mol Biol. 161: 269-288; Desjarlais et al. (1988) J. Med. Chem., 31: 722-729). After computational ligand docking for each of the cavities, a combination of NMR spectroscopy, surface plasmon resonance (BIAcore 3000; Biacore, Piscataway, N.J.) and competitive binding experiments were used to confirm ligand binding to HLA-DR10 protein. […]

As to `CC(=O)NC(CCCNC(=N)N)C(=O)NC(CCCNC(=N)N)C(=O)NC(CCCNC(=N)N)C(=O)NC(CCCNC(=N)N)C(=O)NC(CCCNC(=N)N)C(=O)NC(CCCNC(=N)N)C(=O)NCCCCC(NC(=O)C(CCCCNC(=O)COCCOCCNC(=O)COCCOCCNC(=O)COCCOCCNC(=O)C(CCCCNC(=O)COCCOCCNC(=O)c1ccc(NC(=O)C(CCCNC(=N)N)NC(=O)c2ccccc2)cc1)NC(=O)C(NS(=O)(=O)c1ccc(N=Nc2ccc(N(C)C)cc2)cc1)C(C)C)NC(=O)COCCOCCNC(=O)COCCOCCNC(=O)COCCOCCNC(=O)C(CCCCNC(=O)COCCOCCNC(=O)c1ccc(NC(=O)C(CCCNC(=N)N)NC(=O)c2ccccc2)cc1)NC(=O)C(NS(=O)(=O)c1ccc(N=Nc2ccc(N(C)C)cc2)cc1)C(C)C)C(=O)NC(CCCCNC(=O)CN1CCN(CC(=O)O)CCN(CC(=O)O)CCN(CC(=O)O)CC1)C(=O)O` (centres unmarked) [(DvLPBaPPP)2LArg6AcLLDo], the “SHAL uptake in Jurkat's cells” value in assay [1] is reported as “minimal SHAL uptake”. Further, the “binding to isolated HLA-DR10 (in words)” value with HLA-DR10 protein is “did not interfere with SHAL binding to the protein”. Also, the Kd on HLA-DR10 protein (biotinylated versions of the SHALs immobilized on streptavidin chip, HLA-DR10 isolated from Raji cells) is approximately 34 nM.

On to `CC(C)C(NS(=O)(=O)c1ccc(N=Nc2ccc(N(C)C)cc2)cc1)C(=O)NCCOCCOCC(=O)NC(CCCCNC(=O)C(CCCCNC(=O)CC(=O)Nc1ccccc1Oc1ncc(C(F)(F)F)cc1Cl)NC(=O)COCCOCCNC(=O)c1ccc(N2CCN(Cc3ccc(Cl)cc3)CC2)c([N+](=O)[O-])c1)C(=O)NCCOCCOCC(=O)NC(CCCCNC(=O)CN1CCN(CC(=O)O)CCN(CC(=O)O)CCN(CC(=O)O)CC1)C(=O)O` (centres unmarked) [tridentate SHAL], for which the “binding to isolated HLA-DR10 (in words)” value in the assay on HLA-DR10 protein is “better than nanomolar”. Moreover, in the assay with HLA-DR10 protein (isolated or recombinant HLA-DR10 protein), the “SHAL binding to HLA-DR10 on Lym-1 addition” value is reported as “blocked by Lym-1 addition”.
